From PubChem BioAssay (NCI)
Where “and” joins values, the source holds several entries; their conditions need not be identical. Identical values can stand only once.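 Where inhibition never reached the appropriate level, the endpoint shown equals the highest concentration tested. Otherwise, values were interpolated linearly from a five-concentration, 48-hour dose response in 96-well plates. GI50: concentration for 50% inhibition of growth. TGI marks complete inhibition of growth.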

What was measured:
Assay in all cases: NCI-60 cell line screen, 48 h; in the data active = GI50 below about 0.43 µM; inactive = the rest
M14 melanoma = system: M14 melanoma
DU-145 prostate = system: DU-145 prostate
HCT-15 colon = system: HCT-15 colon
OVCAR-8 ovarian = system: OVCAR-8 ovarian
OVCAR-5 ovarian = system: OVCAR-5 ovarian
SK-OV-3 ovarian = system: SK-OV-3 ovarian
SNB-75 CNS = system: SNB-75 CNS
UACC-62 melanoma = system: UACC-62 melanoma
PC-3 prostate = system: PC-3 prostate
ACHN renal = system: ACHN renal
SR leukemia = system: SR leukemia
HT29 colon = system: HT29 colon
EKVX NSCLC = system: EKVX NSCLC
IGROV1 ovarian = system: IGROV1 ovarian
A549 NSCLC = system: A549 NSCLC
U251 CNS = system: U251 CNS
NCI-H226 lung = system: NCI-H226 lung
HS 578T breast = system: HS 578T breast
HCT-116 colon = system: HCT-116 colon
OVCAR-3 ovarian = system: OVCAR-3 ovarian
RXF 393 renal = system: RXF 393 renal
HOP-92 NSCLC = system: HOP-92 NSCLC
NCI-H522 lung = system: NCI-H522 lung
RPMI-8226 leukemia = system: RPMI-8226 leukemia
SNB-19 CNS = system: SNB-19 CNS
MCF7 breast = system: MCF7 breast
SN12C renal = system: SN12C renal
SK-MEL-28 melanoma = system: SK-MEL-28 melanoma
COLO 205 colon = system: COLO 205 colon
MDA-MB-231 breast = system: MDA-MB-231 breast
CAKI-1 renal = system: CAKI-1 renal
UO-31 renal = system: UO-31 renal
MOLT-4 leukemia = system: MOLT-4 leukemia
MDA-MB-435 = system: MDA-MB-435
SF-539 CNS = system: SF-539 CNS
OVCAR-4 ovarian = system: OVCAR-4 ovarian
HL-60(TB) leukemia = system: HL-60(TB) leukemia
NCI-H23 lung = system: NCI-H23 lung
NCI/ADR-RES ovarian = system: NCI/ADR-RES ovarian
K-562 leukemia = system: K-562 leukemia
SF-268 CNS = system: SF-268 CNS
HCC-2998 colon = system: HCC-2998 colon
SW-620 colon = system: SW-620 colon
LOX IMVI melanoma = system: LOX IMVI melanoma
HOP-62 NSCLC = system: HOP-62 NSCLC
BT-549 breast = system: BT-549 breast
T-47D breast = system: T-47D breast
KM12 colon = system: KM12 colon
SK-MEL-5 melanoma = system: SK-MEL-5 melanoma
786-0 renal = system: 786-0 renal
UACC-257 melanoma = system: UACC-257 melanoma
CCRF-CEM leukemia = system: CCRF-CEM leukemia
TK-10 renal = system: TK-10 renal
A498 renal = system: A498 renal
SF-295 CNS = system: SF-295 CNS
NCI-H460 lung = system: NCI-H460 lung
SK-MEL-2 melanoma = system: SK-MEL-2 melanoma
MALME-3M melanoma = system: MALME-3M melanoma

NC1(C(=O)N[C@@H](CCO)c2ccc(Cl)cc2)CCN(c2ncnc3[nH]ccc23)CC1
> 81.8 µM: TGI (RPMI-8226 leukemia)
> 90.3 µM: TGI (NCI-H522 lung)
> 76.8 µM: TGI (T-47D breast)
2.42 µM and 13.2 µM: TGI (SF-539 CNS)
> 5.59 µM and 62 µM: TGI (SK-MEL-5 melanoma)
inactive: GI50 (M14 melanoma) > 2.68 µM and 9.15 µM | GI50 (DU-145 prostate) > 2.74 µM and 29.7 µM | GI50 (HCT-15 colon) > 3.33 µM and 53.9 µM | GI50 (OVCAR-8 ovarian) > 4.3 µM and 42.5 µM | GI50 (OVCAR-5 ovarian) > 2.22 µM and 9.44 µM | GI50 (UACC-62 melanoma) 0.608 µM and 1.85 µM | GI50 (PC-3 prostate) 0.86 µM and 0.841 µM | GI50 (ACHN renal) > 2.01 µM and 9.6 µM | GI50 (SR leukemia) 2.24 µM and 5.95 µM | GI50 (HT29 colon) 2.5 µM and 5.26 µM | GI50 (EKVX NSCLC) 7.46 µM | GI50 (A549 NSCLC) > 3.15 µM and 12 µM | GI50 (U251 CNS) > 3.38 µM and 2 µM | GI50 (NCI-H226 lung) 2.14 µM and 7.92 µM | GI50 (HCT-116 colon) 2.75 µM and 10.7 µM | GI50 (OVCAR-3 ovarian) > 2.43 µM and 28 µM | GI50 (NCI-H522 lung) > 2.05 µM and 17.1 µM | GI50 (RPMI-8226 leukemia) > 2.61 µM and 27.3 µM | GI50 (SNB-19 CNS) 1.5 µM and 3.82 µM | GI50 (MCF7 breast) 0.632 µM and 1.72 µM | GI50 (SN12C renal) 13.9 µM | GI50 (SK-MEL-28 melanoma) 1.69 µM and 7.47 µM | GI50 (COLO 205 colon) 1.9 µM and 10.9 µM | GI50 (MDA-MB-231 breast) > 3.44 µM and 41 µM | GI50 (CAKI-1 renal) > 2.14 µM and 14.1 µM | GI50 (UO-31 renal) 1.17 µM and 5.53 µM | GI50 (MOLT-4 leukemia) 0.505 µM and 0.644 µM | GI50 (MDA-MB-435) 2.34 µM and 4.94 µM | GI50 (OVCAR-4 ovarian) > 3.08 µM and 33.7 µM | GI50 (HL-60(TB) leukemia) > 4.63 µM and 24.2 µM | GI50 (NCI-H23 lung) > 3.45 µM and 13.9 µM | GI50 (NCI/ADR-RES ovarian) > 100 µM | GI50 (K-562 leukemia) > 5.28 µM and 59.9 µM | GI50 (SF-268 CNS) > 2.26 µM and 32.2 µM | GI50 (HCC-2998 colon) > 2.1 µM and 8.17 µM | GI50 (SW-620 colon) > 3.5 µM and 24.8 µM | GI50 (LOX IMVI melanoma) > 2.85 µM and 22.2 µM | GI50 (HOP-62 NSCLC) 3.69 µM and 4.89 µM | GI50 (KM12 colon) 0.927 µM and 2.78 µM | GI50 (SK-MEL-5 melanoma) > 3.51 µM and 19.1 µM | GI50 (UACC-257 melanoma) 3.8 µM and 7.39 µM | GI50 (CCRF-CEM leukemia) 0.499 µM and 1.18 µM | GI50 (TK-10 renal) 1.04 µM and 2.56 µM | GI50 (SF-295 CNS) 0.455 µM and 0.482 µM | GI50 (NCI-H460 lung) 0.679 µM and 1.74 µM | GI50 (SK-MEL-2 melanoma) > 4.51 µM and 16.3 µM | GI50 (MALME-3M melanoma) 0.977 µM and 2.38 µM
> 69.7 µM: TGI (TK-10 renal)
> 3.09 µM and 38.5 µM: TGI (SK-OV-3 ovarian)
> 77.2 µM: TGI (KM12 colon)
> 3.54 µM and 18.7 µM: TGI (MALME-3M melanoma)
> 5.24 µM and 72.1 µM: TGI (UO-31 renal)
> 10 µM and 39.5 µM: TGI (SR leukemia)
> 10 µM and 21.5 µM: TGI (MOLT-4 leukemia)
> 92.1 µM: TGI (A549 NSCLC)
0.306 µM and 0.842 µM: GI50 (SK-OV-3 ovarian)
> 83.7 µM: TGI (COLO 205 colon)
1.54 µM and 1.53 µM: TGI (HOP-92 NSCLC)
> 58.4 µM: TGI (CCRF-CEM leukemia)
> 10 µM and 78.6 µM: TGI (HCT-116 colon)
> 82.8 µM: TGI (SK-MEL-2 melanoma)
0.167 µM and 0.439 µM: GI50 (T-47D breast)
0.69 µM and 5.83 µM: TGI (RXF 393 renal)
active: GI50 (SNB-75 CNS) 0.245 µM and 0.11 µM | GI50 (IGROV1 ovarian) 0.102 µM and 0.27 µM | GI50 (HS 578T breast) 0.177 µM and 0.421 µM | GI50 (RXF 393 renal) 0.13 µM and 0.354 µM | GI50 (HOP-92 NSCLC) 0.167 µM and 0.144 µM | GI50 (SF-539 CNS) 0.223 µM and 0.417 µM | GI50 (786-0 renal) 0.292 µM and 0.354 µM | GI50 (A498 renal) 0.0709 µM and 0.135 µM
> 67.8 µM: TGI (HL-60(TB) leukemia)
0.366 µM and 0.624 µM: GI50 (BT-549 breast)
> 100 µM: TGI (DU-145 prostate) | TGI (HCT-15 colon) | TGI (OVCAR-8 ovarian) | TGI (OVCAR-5 ovarian) | TGI (PC-3 prostate) | TGI (ACHN renal) | TGI (HT29 colon) | TGI (EKVX NSCLC) | TGI (IGROV1 ovarian) | TGI (U251 CNS) | TGI (OVCAR-3 ovarian) | TGI (SNB-19 CNS) | TGI (MCF7 breast) | TGI (SN12C renal) | TGI (SK-MEL-28 melanoma) | TGI (MDA-MB-231 breast) | TGI (CAKI-1 renal) | TGI (MDA-MB-435) | TGI (OVCAR-4 ovarian) | TGI (NCI-H23 lung) | TGI (NCI/ADR-RES ovarian) | TGI (K-562 leukemia) | TGI (SF-268 CNS) | TGI (HCC-2998 colon) | TGI (SW-620 colon) | TGI (LOX IMVI melanoma) | TGI (HOP-62 NSCLC) | TGI (786-0 renal) | TGI (UACC-257 melanoma) | TGI (NCI-H460 lung)
> 5.03 µM and 12.9 µM: TGI (SF-295 CNS)
> 3.28 µM and 2.19 µM: TGI (SNB-75 CNS)
4 µM and 23.7 µM: TGI (UACC-62 melanoma)
> 81.4 µM: TGI (M14 melanoma)
0.522 µM and 0.939 µM: TGI (A498 renal)
> 83.4 µM: TGI (NCI-H226 lung)
> 5.01 µM and 13 µM: TGI (BT-549 breast)
